In series [1] the test system is Rattus norvegicus. Put plainly: Number of rats scored LSD correct/number tested was reported at a dose of 3.710 uM/kg using 2-lever drug discrimination assay; complete generalisation did not occur at the highest dose used. Type of series: ADME, organism-based. To be noted: in vivo.
For series [2], the system named is Rattus norvegicus. Put plainly: Number of rats scored LSD correct/number tested was reported at a dose of 46.5 nM/Kg using 2-lever drug discrimination assay; 4/8. Type of series: functional.
Series [3] relates to Rattus norvegicus. Nature of the series: Number of rats scored LSD correct/number tested was reported at a dose of 11.5 nM/Kg using 2-lever drug discrimination assay; 2/8. Type of series: functional.
The subject of series [4] is Rattus norvegicus. Put plainly: Number of rats scored LSD correct/number tested was reported at a dose of 93 nM/Kg using 2-lever drug discrimination assay; 6/8. It counts as functional.
The species entered for series [5] is Rattus norvegicus. Put plainly: Effective dose at which 50% of the rats tested selected the LSD-appropriate lever was reported; 0.019-0.071. Type of series: functional.
In series [6] the test system is Rattus norvegicus. Put plainly: Number of rats scored LSD correct/number tested was reported at a dose of 185 nM/kg using 2-lever drug discrimination assay; 8/8. Type of series: functional.
The test system of series [7] is Rattus norvegicus. Put plainly: Number of rats scored LSD correct/number tested was reported at a dose of 23 nM/Kg using 2-lever drug discrimination assay; 2/8. It counts as functional.
The species entered for series [8] is Rattus norvegicus. Put plainly: Potency ratio was obtained using a 3 point x 3 point parallel-line bioassay for quantal data and reflects the potency relative to LSD; 1.62-0.62. It counts as functional.
Series [9] concerns Rattus norvegicus. Nature of the series: Number of rats scored LSD correct/number tested was reported at a dose of 185.5 nM/kg using 2-lever drug discrimination assay; 1/8. Type of series: functional.
The species entered for series [10] is Rattus norvegicus. Nature of the series: Potency ratio was obtained using a 3 point x 3 point parallel-line bioassay for quantal data and reflects the potency relative to LSD; 0.21-0.08. It counts as functional.
Series [11] concerns Rattus norvegicus. Put plainly: Number of rats scored LSD correct/number tested was reported at a dose of 93 nM/kg using 2-lever drug discrimination assay; 1/8. Type of series: functional.
For series [12], the species on record is Rattus norvegicus. Nature of the series: Effective dose at which 50% of the rats tested selected the LSD-appropriate lever was reported; 0.209-0.610. It counts as functional.
The test system of series [13] is Rattus norvegicus. Nature of the series: Number of rats scored LSD correct/number tested was reported at a dose of 742 nM/kg using 2-lever drug discrimination assay; 7/8. It counts as functional.
The test system of series [14] is Rattus norvegicus. Put plainly: Number of rats scored LSD correct/number tested was reported at a dose of 371 nM/kg using 2-lever drug discrimination assay; 3/8. It counts as functional.
The subject of series [15] is Rattus norvegicus. Put plainly: Number of rats scored LSD correct/number tested was reported at a dose of 46.5 nM/kg using 2-lever drug discrimination assay; 0/8. Type of series: functional.
The subject of series [16] is Rattus norvegicus. Nature of the series: Number of rats scored LSD correct/number tested was reported at a dose of 46.5 nM/Kg using 2-lever drug discrimination assay; 5/8. Type of series: functional.
Series [17] is filed under the species Rattus norvegicus. Nature of the series: Potency ratio was obtained using a 3 point x 3 point parallel-line bioassay for quantal data and reflects the potency relative to LSD; 2.63-1.00. It counts as functional.
For series [18], the system named is Rattus norvegicus. Nature of the series: Number of rats scored LSD correct/number tested was reported at a dose of 11.5 nM/Kg using 2-lever drug discrimination assay; 3/8. It counts as functional.
The species entered for series [19] is Rattus norvegicus. Put plainly: Effective dose at which 50% of the rats tested selected the LSD-appropriate lever was reported; 0.010-0.041. It counts as functional.
For series [20], the system named is Rattus norvegicus. Nature of the series: Number of rats scored LSD correct/number tested was reported at a dose of 5.75 nM/Kg using 2-lever drug discrimination assay; 2/8. It counts as functional.
Series [21] relates to Rattus norvegicus. Put plainly: Number of rats scored LSD correct/number tested was reported at a dose of 23.0 nM/Kg using 2-lever drug discrimination assay; 3/8. It counts as functional.
The test system of series [22] is Rattus norvegicus. Nature of the series: Number of rats scored LSD correct/number tested was reported at a dose of 93 nM/Kg using 2-lever drug discrimination assay; 8/8. It counts as functional.
The test system of series [23] is Rattus norvegicus. Nature of the series: Number of rats scored LSD correct/number tested was reported at a dose of 185.5 nM/Kg using 2-lever drug discrimination assay; 5/8. It counts as functional.
For series [24], the species on record is Rattus norvegicus. Put plainly: Potency ratio was obtained using a 3 point x 3 point parallel-line bioassay for quantal data and reflects the potency relative to LSD; 0.66-0.25. Type of series: functional.
In series [25] the test system is Rattus norvegicus. Nature of the series: Number of rats scored LSD correct/number tested was reported at a dose of 371 nM/kg using 2-lever drug discrimination assay; 8/8. It counts as functional.
Series [26] deals with Rattus norvegicus. Put plainly: Number of rats scored LSD correct/number tested was reported at a dose of 23 nM/Kg using 2-lever drug discrimination assay; 1/8. It counts as functional.
For series [27], the species on record is Rattus norvegicus. Nature of the series: Effective dose at which 50% of the rats tested selected the LSD-appropriate lever was reported; 0.052-0.186. Type of series: functional.
Series [28] relates to Rattus norvegicus. Nature of the series: Number of rats scored LSD correct/number tested was reported at a dose of 93 nM/kg using 2-lever drug discrimination assay; 3/8. It counts as functional.
Series [29] deals with Rattus norvegicus. Put plainly: Number of rats scored LSD correct/number tested was reported at a dose of 46.5 nM/Kg using 2-lever drug discrimination assay; 2/8. Type of series: functional.
Series [30] relates to Rattus norvegicus. Put plainly: Number of rats scored LSD correct/number tested was reported at a dose of 0.742 uM/kg using 2-lever drug discrimination assay; complete generalisation did not occur at the highest dose used. To be noted: in vivo. It counts as ADME, organism-based.
For series [31], the system named is Rattus norvegicus. Put plainly: Number of rats scored LSD correct/number tested was reported at a dose of 23 nM/kg using 2-lever drug discrimination assay; 4/8. Type of series: functional.
The species entered for series [32] is Rattus norvegicus. Put plainly: Effective dose at which 50% of the rats tested selected the LSD-appropriate lever was reported; 0.006-0.027. Type of series: functional.
Series [33] deals with Rattus norvegicus. Put plainly: Number of rats scored LSD correct/number tested was reported at a dose of 93 nM/kg using 2-lever drug discrimination assay; 8/8. Type of series: functional.
The subject of series [34] is Rattus norvegicus. Put plainly: Number of rats scored LSD correct/number tested was reported at a dose of 11.5 nM/kg using 2-lever drug discrimination assay; 4/8. It counts as functional.
The species named for series [35] is Rattus norvegicus. Put plainly: Potency ratio was obtained using a 3 point x 3 point parallel-line bioassay for quantal data and reflects the potency relative to LSD; 3.27-1.24. Type of series: functional.
Series [36] deals with Rattus norvegicus. Nature of the series: Number of rats scored LSD correct/number tested was reported at a dose of 46.5 nM/kg using 2-lever drug discrimination assay; 6/8. Type of series: functional.
The subject of series [37] is Rattus norvegicus. Nature of the series: Number of rats scored LSD correct/number tested was reported at a dose of 5.75 nM/kg using 2-lever drug discrimination assay; 3/8. Type of series: functional.
Series [38] deals with Rattus norvegicus. Nature of the series: Number of rats scored LSD correct/number tested was reported at a dose of 11.5 nM/Kg using 2-lever drug discrimination assay; 0/8. Type of series: functional.
Series [39] deals with Rattus norvegicus. Nature of the series: Number of rats scored LSD correct/number tested was reported at a dose of 185.5 nM/Kg using 2-lever drug discrimination assay; 8/8. It counts as functional.
The species named for series [40] is Rattus norvegicus. Nature of the series: Effective dose at which 50% of the rats tested selected the LSD-appropriate lever was reported; 0.029-0.072. It counts as functional.
Series [41] is filed under the species Rattus norvegicus. Put plainly: Potency ratio was obtained using a 3 point x 3 point parallel-line bioassay for quantal data and reflects the potency relative to LSD. Type of series: functional.
Series [42] relates to Rattus norvegicus. Nature of the series: Number of rats scored LSD correct/number tested was reported at a dose of 93.0 nM/Kg using 2-lever drug discrimination assay; 6/8. It counts as functional.

Take `CCN(CC)C(=O)[C@@H]1C=C2c3cccc4[nH]cc(c34)C[C@H]2NC1`: the Activity in series [1] was found to be 50%.
Broadly, the ED50 is the dose at which the effect has come halfway, by size or by number of responders. A low value points to greater potency. With `CCCN1C[C@H](C(=O)N(CC)CC)C=C2c3cccc4[nH]cc(c34)C[C@H]21`, the Activity was 4 in series [2]; 2 in series [3]; 6 in [4]; 8 in series [6]; 2 in [7]. For the same compound, the median effective dose (ED50) in [5] stood at 0.037 µg/kg. Further, in series [8], the Potency ratio stood at 1.
For the compound `CCCCN1C[C@H](C(=O)N(CC)CC)C=C2c3cccc4[nH]cc(c34)C[C@H]21`, the Activity in series [9] is 1; in series [11], 1; in series [13] it was 7; in [14], 3; in [15], 0. Moreover, the Potency ratio in series [10] came to 0.13. The compound further displayed an ED50 in [12] of 0.357 µg/kg.
Regarding `CCN(CC)C(=O)[C@@H]1C=C2c3cccc4[nH]cc(c34)C[C@H]2N(CC)C1`, the Activity was 5 in [16]; 3 in series [18]; 2 in series [20]; 3 in series [21]; 8 in [22]. Also, the Potency ratio in series [17] is given as 1.63. It took a dose of 0.02 µg/kg to reach the 50% effect level in series [19] (ED50).
As to `CCN(CC)C(=O)[C@@H]1C=C2c3cccc4[nH]cc(c34)C[C@H]2N(C(C)C)C1`, the Activity in [23] came out at 5; in series [25] it was 8; in series [26] it was 1; in series [28] it was 3; in series [29], 2. In addition, the Potency ratio in [24] is 0.41. The compound also came in with an ED50 in series [27] of 0.1 µg/kg.
The compound `CCN(CC)C(=O)[C@@H]1C=C2c3cccc4[nH]cc(c34)C[C@H]2N(CCc2ccccc2)C1` registered an Activity in series [30] of 25%.
For `C=CCN1C[C@H](C(=O)N(CC)CC)C=C2c3cccc4[nH]cc(c34)C[C@H]21`, the Activity in series [31] is 4; in series [33], 8; in [34] it was 4; in series [36] it was 6; in series [37], 3. This compound also had an ED50 in [32] of 0.013 µmol/kg. Further, the Potency ratio in [35] came out at 2.01.
`CCN(CC)C(=O)[C@@H]1C=C2c3cccc4[nH]cc(c34)C[C@H]2N(C)C1` [LYSERGIDE]: the Activity in [2] was 4; in series [38] it was 0; in [39], 8; in [7] it was 2; in series [42], 6. The compound also came in with an ED50 in series [40] of 0.046 µg/kg. In addition, in [41], the Potency ratio is 1.

(Values after ChEMBL document CHEMBL1123035, “Synthesis and LSD-like discriminative stimulus properties in a series of N(6)-alkyl norlysergic acid N,N-diethylamide derivatives” (J Med Chem, 1985).)
